Data from patent US20080194551A1, “Acetylene Derivatives” (priority 2005, published 2008).

How the values were obtained:
hmGluR5 = target: T1, hmGluR5 (Homo sapiens, UniProt P41594); test: Inhibition of quisqualate-induced inositol phosphate turnover in hmGluR5 expressing cells; type: cell-based; conditions: agonist quisqualate, read-out: IC50 concentration, inhibition of quisqualate-induced inositol phosphate turnover
T1 construct: expressed in transfected cells
Excerpt: This can be determined in vitro for example at recombinant human metabotropic glutamate receptors, especially PLC-coupled subtypes thereof such as mGluR5, using different procedures like, for example, measurement of the inhibition of the agonist induced elevation of intracellular Ca^2+ concentration in accordance with L. P. Daggett et al., Neuropharm. Vol. 34, pages 871-886 (1995), P. J. Flor et al., J. Neurochem. Vol. 67, pages 58-63 (1996) or by determination to what extent the agonist induced elevation of the inositol phosphate turnover is inhibited as described by T. Knoepfel et al., Eur. J. Pharmacol. Vol. 288, pages 389-392 (1994), L. P. Daggett et al., Neuropharm. Vol. 67, pages 58-63 (1996) and references cited therein. Isolation and expression of human mGluR subtypes are described in U.S. Pat. No. 5,521,297. Selected agents of the invention show IC50 values for the inhibition of the agonist (e.g. glutamate or quisqualate) induced elevation of intracellular Ca2+ concentration or the agonist (e.g. glutamate or quisqualate) induced inositol phosphate turnover, measured in recombinant cells expressing hmGluR5a of about 1 nM to about 50 μM.
4-(3-Chloro-phenylamino)-1-(3-chloro-phenylethynyl)-cyclohexanol inhibits the quisqualate-induced inositol phosphate turnover in hmGluR5 expressing cells with an IC50 concentration of 4000 nM.

T1 sequence (P41594 21-1180 isoform P41594-2 limits assumed): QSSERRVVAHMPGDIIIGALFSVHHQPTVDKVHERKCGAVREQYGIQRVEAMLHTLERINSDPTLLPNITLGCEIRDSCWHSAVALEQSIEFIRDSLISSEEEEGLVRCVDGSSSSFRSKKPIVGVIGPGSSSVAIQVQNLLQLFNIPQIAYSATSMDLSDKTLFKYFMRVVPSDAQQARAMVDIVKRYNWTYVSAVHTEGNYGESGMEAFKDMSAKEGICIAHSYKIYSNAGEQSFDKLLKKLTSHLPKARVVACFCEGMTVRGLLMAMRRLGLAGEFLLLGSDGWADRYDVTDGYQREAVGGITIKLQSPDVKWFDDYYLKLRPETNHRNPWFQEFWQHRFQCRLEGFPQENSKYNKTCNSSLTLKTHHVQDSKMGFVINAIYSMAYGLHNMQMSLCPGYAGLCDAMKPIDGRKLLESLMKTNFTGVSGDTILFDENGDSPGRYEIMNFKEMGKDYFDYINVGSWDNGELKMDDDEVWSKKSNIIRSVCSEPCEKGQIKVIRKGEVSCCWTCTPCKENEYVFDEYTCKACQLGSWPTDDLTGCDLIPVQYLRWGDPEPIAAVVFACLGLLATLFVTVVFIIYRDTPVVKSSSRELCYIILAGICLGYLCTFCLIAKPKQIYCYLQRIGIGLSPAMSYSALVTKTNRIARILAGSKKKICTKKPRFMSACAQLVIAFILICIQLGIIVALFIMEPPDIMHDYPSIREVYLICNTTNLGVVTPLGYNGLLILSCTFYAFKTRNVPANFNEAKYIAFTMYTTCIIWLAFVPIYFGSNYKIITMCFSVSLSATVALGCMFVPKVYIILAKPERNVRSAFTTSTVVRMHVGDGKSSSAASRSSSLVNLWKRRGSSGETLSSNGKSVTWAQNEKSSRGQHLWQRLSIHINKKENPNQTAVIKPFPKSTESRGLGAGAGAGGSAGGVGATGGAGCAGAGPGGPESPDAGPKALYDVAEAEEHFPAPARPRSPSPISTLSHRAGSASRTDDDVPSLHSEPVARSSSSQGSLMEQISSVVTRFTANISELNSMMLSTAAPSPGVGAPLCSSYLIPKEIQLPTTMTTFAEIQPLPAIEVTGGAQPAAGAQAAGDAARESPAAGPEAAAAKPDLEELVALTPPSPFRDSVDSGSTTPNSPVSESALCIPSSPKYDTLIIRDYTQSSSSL

Row | melting point | IC50 (hmGluR5) | SMILES
1 | 145 to 149 °C | – | OC1(C#Cc2cccc(Cl)c2)CCC(Nc2cc(Cl)cc(Cl)c2)CC1 (centres unmarked) [Example 2.6, 4-(3,5-Dichloro-phenylamino)-1-(3-chloro-phenylethynyl)-cyclohexanol]
2 | – | 4 µM | OC1(C#Cc2cccc(Cl)c2)CCC(Nc2cccc(Cl)c2)CC1 (centres unmarked) [Example 2.2, 4-(3-Chloro-phenylamino)-1-(3-chloro-phenylethynyl)-cyclohexanol]
